Measured values reported in patent publication US11020405B2, “Method for prevention or treatment of diabetic complications” (KANGWON NATIONAL UNIVERSITY UNIVERSITY-INDUSTRY COOPERATION …, priority 2017, dated 2021).

How the values were obtained:
[1] = test system: human retinal endothelial cells (HRECs); experiment: Analysis of intracellular Ca^2+ (Fluo4-AM, confocal microscopy); assay type: cell-based
Procedure: (§1) Purchased from Applied Cell Biology Research Institute (Cell Systems, Kirkland, Wash.), human retinal endothelial cells (HRECs) were cultured in an M19 medium, containing 20% FBS, 3 ng/mL bFGF, 5 U/mL heparin, 100 U/mL penicillin and […], in a 2% gelatin-coated plate.
(§2) Before the following Test Examples 2 to 7, the HRECs were cultured for 6 hr in a medium containing 1% FBS and an antibiotic agent, thus preparing HRECs of Test Example 1.
With reference to FIG. 2A, the HRECs of Test Example 1 were subjected to the respective treatments below, stained with 2 μM Fluo4-AM at 37° C. for 30 min and then measured at time intervals of 10 sec using confocal microscopy (FV-300, Olympus, Tokyo, Japan).
With reference to FIG. 2B, the HRECs of Test Example 1 were subjected to the respective treatments below, cultured for 30 min, stained with 2 μM Fluo4-AM at 37° C. for 30 min and then measured at time intervals of 10 sec using confocal microscopy.

[2] = test system: human retinal endothelial cells (HRECs); experiment: Analysis of ROS of cells (H2DCFDA fluorescence); assay type: cell-based
Procedure: as §1, §2
With reference to FIG. 3A, the HRECs of Test Example 1 were treated with 0 to 20 μM midazolam, cultured for 30 min, treated with 10 ng/mL VEGF and 10 μM H2DCFDA (Molecular Probes, Eugene, Oreg.), stained for 10 min in a phenol-red-free low-serum medium, and then measured using confocal microscopy to thus determine the fluorescence intensity of single cells.
With reference to FIG. 3B, the HRECs of Test Example 1 were subjected to the respective treatments below and cultured for 30 min. Upon treatment with 10 ng/mL VEGF, treatment with 10 μM H2DCFDA was performed therewith, or alternatively, treatment with 10 μM H2DCFDA was performed alone, followed by staining for 10 min in a phenol-red-free low-serum medium and then measurement via confocal microscopy to thus determine the fluorescence intensity of single cells.

TGase = experiment: Analysis of TGase activity of cells (5-(biotinamido)pentylamine incorporation); assay type: cell-based, human; settings: HRECs
Procedure: as §1, §2
With reference to FIG. 4A, the HRECs of Test Example 1 were treated with 0 to 20 μM midazolam, cultured for 2 hr, treated with 10 ng/mL VEGF, incubated for 2 hr, treated with 1 mM 5-(biotinamido)pentylamine, incubated for 1 hr, fixed with 3.7% formaldehyde, treated with 0.2% triton X-100, treated with a blocking solution containing 138 mM NaCl, 0.1% Tween 20 and 2% BSA dissolved in a 20 mM Tris (pH 7.6) buffer, incubated for 30 min, incubated for 1 hr with FITC-conjugated streptavidin (1:200, v/v), and then measured using confocal microscopy to thus determine the fluorescence intensity of single cells.
With reference to FIG. 4B, the HRECs of Test Example 1 were subjected to the respective treatments below and cultured for 30 min. Here, treatment with 10 ng/mL VEGF was performed for 2 hr. […]

[3] = test system: aortic endothelium of diabetic mice; experiment: Hyperglycemia-induced endothelial apoptosis in aortic endothelium of diabetic mice (TUNEL); assay type: in vivo, C57BL/6 mice; settings: midazolam 10 mg/kg intraperitoneal daily for 14 days (FIG. 19)
Procedure: FIGS. 19A and 19B show the preventive effects of midazolam against hyperglycemia-induced endothelial apoptosis in the aortic endothelium of diabetic mice. Six-week-old male C57BL/6 mice were administered with streptozotocin (150 mg/kg body weight) to give diabetic mouse models. One week after streptozotocin injection, diabetic mice were administered midazolam (10 mg/kg) by intraperitoneal injection daily for 14 days. The body weight of mice were measure in normal (20.7±0.1 g), diabetic (17.1±0.1 g), and midazolam supplemented diabetic mice (17.0±0.3 g). Blood glucose levels were also monitored in normal (124.0±12.0 mg/dL), diabetic (509.0±1.0 mg/dL), and midazolam supplemented diabetic mice (515.7±3.4 mg/dL). Aorta of mice were dissected and cut longitudinally to expose the endothelium. And then aortic segments were fixed for 15 min with 1% (w/v) paraformaldehyde in PBS, followed by treatment for 30 min with 70% (v/v) ethanol on ice. Apoptotic cells were stained by terminal deoxynucleotidyl transferase dUTP nick end labeling (TUNEL) with nuclear counterstaining with DAPI and visualized by confocal microscopy in the aortic endothelium. […] The results of endothelial apoptosis quantitatively analyzed by measurement of TUNEL staining in the aorta are shown in additional FIG. 19B (n=4 for normal and diabetic, n=6 for diabetic+Midazolam).

B16F10 cells = experiment: Hyperglycemia-induced cancer metastasis in lungs of diabetic mice (melanoma nodules); assay type: in vivo, C57BL/6 mice; settings: 10 mg/kg midazolam intraperitoneal daily for 14 days, B16F10 cells intravenously (FIG. 22)
Procedure: FIGS. 22A and 22B show the preventive effects of midazolam against hyperglycemia-induced cancer metastasis in the lungs of diabetic mice. Six-week-old male C57BL/6 mice were administered with streptozotocin (150 mg/kg) to give diabetic mouse models. One weeks after streptozotocin injection, diabetic mice were administered 10 mg/kg midazolam by intraperitoneal injection daily for 14 days, and diabetic and midazolam supplemented diabetic mice were intravenously injected with B16F10 cells (5×10^5) in PBS. The weight of mice were measure in diabetic (16.4±0.2 g) and midazolam supplemented diabetic mice (16.2±0.5 g). Blood glucose levels were also monitored in diabetic (511.0±10.0 mg/dL) and midazolam supplemented diabetic mice (515.7±3.4 mg/dL). Two weeks later, the mice were euthanized by cervical dislocation, and the lungs were removed and bleached in Fekete's solution (70% ethanol, 3.7% paraformaldehyde, 0.75 M glacial acetic acid). Representative images of melanoma metastasis in lungs are shown in additional FIG. 22A. The results of melanoma metastasis assessed by counting metastatic lung nodules under a dissection microscope are shown in additional FIG. 22B (n=2/group).

SMILES: Cc1ncc2n1-c1ccc(Cl)cc1C(c1ccccc1F)=NC2 [midazolam]
- changes in intracellular Ca^2+ (VEGF-induced) ([1]; 10 ng/ml VEGF and 20 μM midazolam together (FIG. 2A)): no significant changes in intracellular Ca^2+
- changes in intracellular Ca^2+ (VEGF-induced, after washing) ([1]; 20 μM midazolam 30 min, washing with serum-free medium, then 10 ng/ml VEGF (FIG. 2A)): intracellular Ca^2+ elevation was caused
- changes in intracellular Ca^2+ ([1]; 20 μM midazolam alone (FIG. 2A)): no significant changes in intracellular Ca^2+
- ROS concentration, concentration dependence ([2]; 0 to 20 μM midazolam 30 min, then 10 ng/mL VEGF (FIG. 3A)): ROS concentration was decreased with an increase in the concentration of midazolam
- ROS concentration (VEGF-induced) compared to control ([2]; 10 ng/mL VEGF with 20 μM midazolam, 5 μM BAPTA-AM, 1 mM NAC, 0.5 μM Trolox, 50 μM cystamine or 20 μM MDC (FIG. 3B)): no significant ROS concentration increase was observed
- TGase activity, concentration dependence (TGase; 0 to 20 μM midazolam 2 hr, then 10 ng/mL VEGF 2 hr (FIG. 4A)): TGase activity was decreased with an increase in the concentration of midazolam
- TGase activity (VEGF-induced) compared to control (TGase; 10 ng/mL VEGF 2 hr with 20 μM midazolam, 5 μM BAPTA-AM, 1 mM NAC, 0.5 μM Trolox, 50 μM cystamine or 20 μM MDC (FIG. 4B)): substantially the same effect of inhibiting TGase activity as the TGase inhibitors cystamine and MDC
- hyperglycemia-induced endothelial apoptosis in aorta (TUNEL staining) [3]: inhibited the hyperglycemia-induced apoptosis of diabetic aortas
- number of metastatic nodules in the lungs (B16F10 cells): the number of metastatic nodules in the lungs of diabetic mice was suppressed
